# Tests used:
# Conditions in all cases: incubation time: 72 h
# BT-549 = assay: drug sensitivity score (DSS), CellTox Green (DSS (AUC-based score)); higher = stronger drug effect (viability inhibition or cytotoxicity); extreme values may be limits of the assay
# Method in brief: (§1)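 Normalisation on every plate relied on 0.1 % DMSO and a positive kill control. The plates, 384-well format, held compound at 5 concentrations 10-fold apart across a compound-specific 10,000-fold range, and breast cancer cell lines in 20 µl suspension were incubated on them for 72 h before CellTox Green and then CellTiter-Glo readings. The drug sensitivity score derives from the area under the fitted dose-response curve.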
# DU-4475 = assay: as above
# Method in brief: as §1
# Hs578T [1] = assay: as above
# Method in brief: as §1
# BT-474 = assay: as above
# Method in brief: as §1
# MDA-MB-231 = assay: as above
# Method in brief: as §1
# MDA-MB-453 = assay: as above
# Method in brief: as §1
# MCF-10A = assay: as above
# Method in brief: as §1
# CAL-51 [2] = assay: as above
# Method in brief: as §1
# MDA-MB-468 [3] = assay: as above
# Method in brief: as §1
# CAL-148 [4] = assay: as above
# Method in brief: as §1
# HCC1143 [5] = assay: as above
# Method in brief: as §1
# HDQ-P1 = assay: as above
# Method in brief: as §1
# MDA-MB-436 = assay: as above
# Method in brief: as §1
# CAL-120 [6] = assay: as above
# Method in brief: as §1
# CAL-85-1 [7] = assay: as above
# Method in brief: as §1
# MFM-223 = assay: as above
# Method in brief: as §1
# HCC1599 = assay: as above
# Method in brief: as §1
# HCC1937 [8] = assay: as above
# Method in brief: as §1
# Hs578T [9] = assay: normalised viability (% of control), CellTiter-Blue; higher = more viable cells (about 100 = DMSO control)
# Experimental: (§2)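 DSRT, CellTiter-Blue viability, 72 h incubation. Signal is normalised to DMSO and benzethonium chloride controls. Value is the normalised response at dose 3.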
# CAL-51 [10] = assay: as above
# Experimental: as §2
# MDA-MB-468 [11] = assay: as above
# Experimental: as §2
# CAL-148 [12] = assay: as above
# Experimental: as §2
# HCC1143 [13] = assay: as above
# Experimental: as §2
# HCC1937 [14] = assay: as above
# Experimental: as §2
# CAL-120 [15] = assay: as above
# Experimental: as §2
# CAL-85-1 [16] = assay: as above
# Experimental: as §2
# SK-BR-3 = assay: as above
# Experimental: as §2
Structure (SMILES),drug sensitivity score (BT-549),drug sensitivity score (DU-4475),drug sensitivity score (Hs578T [1]),drug sensitivity score (BT-474),drug sensitivity score (MDA-MB-231),drug sensitivity score (MDA-MB-453),drug sensitivity score (MCF-10A),drug sensitivity score (CAL-51 [2]),drug sensitivity score (MDA-MB-468 [3]),drug sensitivity score (CAL-148 [4]),drug sensitivity score (HCC1143 [5]),drug sensitivity score (HDQ-P1),drug sensitivity score (MDA-MB-436),drug sensitivity score (CAL-120 [6]),drug sensitivity score (CAL-85-1 [7]),drug sensitivity score (MFM-223),drug sensitivity score (HCC1599),drug sensitivity score (HCC1937 [8]),normalised viability (Hs578T [9]; 10 nM) [%],normalised viability (CAL-51 [10]; 1 nM) [%],normalised viability (MDA-MB-468 [11]; 10 nM) [%],normalised viability (CAL-148 [12]; 1 nM) [%],normalised viability (HCC1143 [13]; 10 nM) [%],normalised viability (HCC1937 [14]; 10 nM) [%],normalised viability (CAL-120 [15]; 10 nM) [%],normalised viability (CAL-85-1 [16]; 1 nM) [%],normalised viability (SK-BR-3; 10 nM) [%],normalised viability (Hs578T [9]; 100 nM) [%],normalised viability (CAL-51 [10]; 10 nM) [%],normalised viability (MDA-MB-468 [11]; 100 nM) [%],normalised viability (CAL-148 [12]; 10 nM) [%],normalised viability (HCC1143 [13]; 100 nM) [%],normalised viability (HCC1937 [14]; 100 nM) [%],normalised viability (CAL-120 [15]; 100 nM) [%],normalised viability (CAL-85-1 [16]; 10 nM) [%],normalised viability (SK-BR-3; 100 nM) [%]
O=C(O)c1ccc(-c2c[nH]c3ncc(-c4ccccc4)cc23)cc1C1CCCC1,0,0,0,0,0,0,0,0,0,0,0,0,0,0,0,1.51,0,,,,,,,,,,,,,,,,,,,
NC(=O)Nc1cc(-c2cccc(F)c2)sc1C(=O)N[C@H]1CCCNC1 [AZD7762],0,0,17.4,0,0.946,0,0,3.37,6.89,0,0,0,0,0,12.9,0,0,0,,,,,,,,,,,,,,,,,,
NC(=O)Nc1cc(-c2cccc(F)c2)sc1C(=O)N[C@H]1CCCNC1 [AZD 7762],,,,,,,,,,,,,,,,,,,104,100,107,105,105,105,114,99.8,97.6,,,,,,,,,
NCC(=O)CCC(=O)O [Aminolevulinic acid],,,,,,,,,,,,,,,,,,,,,,,,,,,,101,101,103,104,88.9,91,99.7,98.4,99
CCN(CCCOc1ccc2c(Nc3cc(CC(=O)Nc4cccc(F)c4)[nH]n3)ncnc2c1)CCOP(=O)(O)O [Barasertib],,,,,,,,,,,,,,,,,,,87.9,96,99.4,102,111,101,88.1,95.5,68.3,,,,,,,,,
Cn1c(CCCC(=O)O)nc2cc(N(CCCl)CCCl)ccc21 [Bendamustine],0,0,,0,4.63,0,0,0,4.02,0,0,0,0,0,0,0,0,0,,,,,,,,,,83.7,106,96.3,108,105,97.4,88.2,102,67.7
C=C(c1ccc(C(=O)O)cc1)c1cc2c(cc1C)C(C)(C)CCC2(C)C [Bexarotene],0,0,,0,0,0,0,0,0,0,0,0,0,0,0,0,0,0,,,,,,,,,,70.7,84.7,108,101,115,93.5,104,97,82.6
CC(=O)Nc1ccc(C(=O)Nc2ccccc2N)cc1 [CI-994],,,,,,,,,,,,,,,,,,,97.8,94,108,98.1,111,108,114,91.7,78.2,,,,,,,,,
N.N.[Cl][Pt][Cl] [Cisplatin],0,0,0,0,0,0,0,0,,0,0,0,0,0,0,0,0,0,,,,,,,,,,106,108,99.1,94.8,103,95.1,86.5,104,90.5
COc1cc2ncnc(Nc3ccc(F)c(Cl)c3)c2cc1NC(=O)/C=C/CN1CCCCC1 [Dacomitinib],0,0,0,6.2,0,0,0,0,0,0,0,0,2.58,0,4.64,0,0,0,,,,,,,,,,,,,,,,,,
C[C@]12CC[C@@H]3c4ccc(O)cc4C[C@@H](CCCCCCCCC[S+]([O-])CCCC(F)(F)C(F)(F)F)[C@H]3[C@@H]1CC[C@@H]2O (stereo not given in full) [Fulvestrant],0,0,0,0,0,0,0,0,,0,0,0,0,0,0,0,0,0,,,,,,,,,,85.5,112,87.2,86.5,77.8,91.9,78.5,95.8,94.3
O=P1(NCCCl)OCCCN1CCCl (stereo not given) [Ifosfamide],0.736,0,0,0,1.11,0,0,0,0,0,0,0,,0,0,0,0,,,,,,,,,,,94.9,107,98.7,92.2,83.4,107,91.2,95.5,70.5
CC(C)Cn1cnc2c(N)nc3ccccc3c21 [Imiquimod],0.506,0,,0,0,0,0,0,3.54,0,0,1.63,0,0,1.01,0,0,0,,,,,,,,,,98.1,102,106,105,120,87.1,98.5,95.2,112
N#CCNC(=O)c1ccc(-c2ccnc(Nc3ccc(N4CCOCC4)cc3)n2)cc1 [Momelotinib],2.78,0,0,0,7.53,0,0,0,2.22,0,0,0,0,0,4.03,0,0,0,,,,,,,,,,,,,,,,,,
CCCCCCCCCCCCCCCCCCOP(=O)([O-])OC1CC[N+](C)(C)CC1 [Perifosine],0,0,0,0,0,0,0,0,0,0,0,0,0,0,0,0,0,0,,,,,,,,,,,,,,,,,,
Cc1ccc(C(=O)Nc2ccc(CN3CCN(C)CC3)c(C(F)(F)F)c2)cc1C#Cc1cnc2cccnn12 [Ponatinib],,,,,,,,,,,,,,,,,,,99.6,96.6,110,103,100,91.6,105,95.9,78,,,,,,,,,
CS(=O)(=O)c1ccc(C2=C(c3ccccc3)C(=O)OC2)cc1 [Rofecoxib],0,0,0,1.58,0,0,0,0,3.77,0,0,0,0,0,0,0,0,1.95,,,,,,,,,,,,,,,,,,
O=C(CCCCCCC(=O)Nc1ccc([C@H]2O[C@@H](CSc3nc(-c4ccccc4)c(-c4ccccc4)o3)C[C@@H](c3ccc(CO)cc3)O2)cc1)NO [Tubacin],0,0,0.503,1.77,7.97,1.38,0,3.54,0,0,2.07,0,0,0,5.67,0,0,10.6,,,,,,,,,,,,,,,,,,

# Source: the supplement of paper PMC4862054
